Experimental data taken from PMC4464647, “ANO1 (TMEM16A) in pancreatic ductal adenocarcinoma (PDAC)” (Pflugers Archiv, 2014).

Test system: Capan-1 cells
Assay: BrdU incorporation cell proliferation assay
Assay type: cell-based, human
Conditions: Capan-1, inhibitor 20 μM, 24 h
Experimental: To assess cell proliferation and apoptosis, cells were plated in duplicates on a 96-well plate and incubated in 100 μl of the cell line appropriate media described above. Cells were transfected with siRNA soon after complete attachment (approx. 3 h after seeding). Cells were treated with vehicle, 20 μM gemcitabine, 20 μM T16Ainh-A01, or 10 μM free NS3728 (see below) after culture in a humidified 37 °C and 5 % CO2 incubator overnight. BrdU incorporation was measured using Cell Proliferation ELISA, BrdU (chemiluminescent) (Roche Diagnostics A/S, Denmark) following the manufacturer’s instructions. Caspases 3, 6, and 7 activation was evaluated using Homogeneous Caspases Assay (fluorimetric) (Roche Diagnostics A/S, Denmark).
Fig. 7 VRAC, but not ANO1, regulates cellular proliferation. a Summary of BrdU incorporation in HPDE, Capan-1, AsPC-1, and BxPC-3 cells after various treatments as indicated. Cells were transfected shortly after complete attachment (approx. 3 h) and BrdU incorporation was assessed 36 h after transfection. To investigate effect of inhibitors, cells were incubated for 24 h with respective inhibitor. Values shown are relative to appropriate control. Data shown represents mean ± s.e.m. of n = 4–6 individual experiments. **p ≤ 0.01 and ***p ≤ 0.001 when compared with control

`CC(C)(C)C1CCc2c(sc(NC(=O)c3ccco3)c2C(=O)O)C1` (stereo not shown) [CaCCinh-A01, 6-(1,1-dimethylethyl)-2-[(2-furanylcarbonyl)amino]-4,5,6,7-tetrahydrobenzo[b]thiophene-3-carboxylic acid] was tested, and the “proliferation (BrdU incorporation)” value was “decreased proliferation in Capan-1 slightly”.
